# From patent US9216980B2, “Methods of use of diazacarbazoles for treating cancer” (Genentech, Inc., priority 2008, dated 2015)
# pEC50: −log10 of the molar value.
# Tested on: HT-29
# Test: Cellular assay (checkpoint abrogation), phospho-Histone H3
# Assay type: cell-based
# Settings: Homo sapiens; HT-29 cells, 20 nM SN-38 for 16 h, then 300 nM nocodazole plus compound for 24 h; phospho-Histone H3 levels; read-out: EC50 in the assay described in EXAMPLE ii
# Protocol: Compounds are tested in a cellular assay using the human colorectal adenocarcinoma derived cell line HT-29 (ATCC HTB-38).
# The cell line is maintained in DMEM/F12 (1:1) media (Invitrogen Gibco, #31331) supplemented with 10% FCS at 37° C. in a 5% CO2 humidified incubator.
# Cells are seeded in 96-well plates at 30,000 cells/well and after 24 h they are exposed to 20 nM SN-38 in 0.4% DMSO. One column of 8 wells on each plate was used to generate a maximum signal control. These cells are treated with 0.4% DMSO without SN-38. Cells are grown for a further 16 h, then the media containing DMSO plus or minus SN-38 is removed and replaced with media containing 300 nM nocodazole alone (to determine baseline) or in combination with ten concentrations of chk1 inhibitor (final DMSO concentration is 0.4%). Cells are grown for a further 24 h. The media is removed and replaced with 50 μl lysis buffer containing protease inhibitors and phosphatase inhibitors. This buffer contains detergent to bring about cellular disruption. […] Following the transfer of lysate to the MSD plate, Histone H3 in the lysate is captured on the coated antibody by incubation at room temperature for 2 h. Following the capture step the plate is washed and then incubated with an antibody to phosphorylated Histone H3 which is conjugated with a Sulfo-Tag. This tag gives a signal when in proximity to the electrode on the base of the MSD plate. Binding the tagged antibody to the captured protein allow detection on a MSD reader.
# EC50 values are calculated using the XLfit software package (version 2.0.5) or Graphpad Prism, (version 3.03) fitting a sigmoidal curve with a variable slope.
row,SMILES,pEC50
1,"CN1CCC(c2ccc(-c3cnc4[nH]c5cnc(C#N)cc5c4c3)cc2)CC1 [Example 1, 3-[4-(1-Methyl-piperidin-4-yl)-phenyl]-9H-dipyrido[2,3-b;4′,3′-d]pyrrole-6-carbonitrile]",> 5.00
2,"N#Cc1cc2c(cn1)[nH]c1ncc(-c3cccc(N)c3)cc12 [Example 166, 3-(3-Amino-phenyl)-9H-dipyrido[2,3-b;4′,3′-d]pyrrole-6-carbonitrile]",> 5.00
3,"c1cn(-c2cc3c(cn2)[nH]c2ncc(-c4ccc(CN5CCCCC5)cc4)cc23)cn1 [Example 366, 3-(4-Piperidin-1-ylmethyl-phenyl)-6-(1H-imidazol-1-yl)-9H-dipyrido[2,3-b;4′,3′-d]pyrrole]",> 5.00
4,"N#Cc1cc2c(cn1)[nH]c1ncc(C#CC3CCCNC3)cc12 (centres unmarked) [Example 119, 3-Piperidin-3-ylethynyl-9H-dipyrido[2,3-b;4′,3′-d]pyrrole-6-carbonitrile]",> 5.00
5,"CN1CCN(c2ccc(-c3cnc4[nH]c5cnc(C#N)cc5c4c3)cc2)CC1 [Example 125, 3-[4-(4-Methyl-piperazin-1-yl)-phenyl]-9H-dipyrido[2,3-b;4′,3′-d]pyrrole-6-carbonitrile]",> 5.00
6,"N#Cc1cc2c(cn1)[nH]c1ncc(-c3ccc(CO)cc3)cc12 [Example 157, 3-(4-Hydroxymethyl-phenyl)-9H-dipyrido[2,3-b;4′,3′-d]pyrrole-6-carbonitrile]",> 5.00
7,"N#Cc1cc2c(cn1)[nH]c1ncc(-c3cnn(CCN4CCOCC4)c3)cc12 [Example 127, 3-[1-(2-Morpholin-4-yl-ethyl)-1H-pyrazol-4-yl]-9H-dipyrido[2,3-b;4′,3′-d]pyrrole-6-carbonitrile]",> 5.00
8,"COc1ccc(-c2cnc3[nH]c4cnc(C#N)cc4c3c2)cc1OC [Example 176, 9H-dipyrido[2,3-b;4′,3′-d]pyrrole-6-carbonitrile]",> 5.00
9,"CN(C)S(=O)(=O)c1cccc(-c2cnc3[nH]c4cnc(C#N)cc4c3c2)c1 [Example 190, 3-(6-Cyano-9H-dipyrido[2,3-b;4′,3′-d]pyrrol-3-yl)-N,N-dimethyl-benzenesulfonamide]",> 5.00
10,"N#Cc1cc2c(cn1)[nH]c1ncc(Cl)cc12 [Example 214, 3-Chloro-9H-dipyrido[2,3-b;4′,3′-d]pyrrole-6-carbonitrile]",> 5.00
11,"Cn1ccc(-c2cnc3[nH]c4cnc(C#N)cc4c3c2)n1 [Example 80, 3-(1-Methyl-1H-pyrazol-3-yl)-9H-dipyrido[2,3-b;4′,3′-d]pyrrole-6-carbonitrile]",> 5.00
12,"N#Cc1cc2c(cn1)[nH]c1ncc(-c3cccs3)cc12 [Example 160, 3-Thiophen-2-yl-9H-dipyrido[2,3-b;4′,3′-d]pyrrole-6-carbonitrile]",> 5.00
13,"CS(=O)(=O)c1cccc(-c2cnc3[nH]c4cnc(C#N)cc4c3c2)c1 [Example 188, 3-(3-Methanesulfonyl-phenyl)-9H-dipyrido[2,3-b;4′,3′-d]pyrrole-6-carbonitrile]",> 5.00
14,"Cn1nncc1-c1cc2c(cn1)[nH]c1ncc(-c3ccc(CN4CCCCC4)cc3)cc12 [Example 368, 6-(1-Methyl-1H-1,2,3-triazol-5-yl)-3-(4-piperidin-1-ylmethyl-phenyl)-9H-dipyrido[2,3-b;4′,3′-d]pyrrole]",> 5.00
15,"CC(=O)Nc1ccc(-c2cnc3[nH]c4cnc(C#N)cc4c3c2)cc1 [Example 186, N-[4-(6-Cyano-9H-dipyrido[2,3-b;4′,3′-d]pyrrol-3-yl)-phenyl]-acetamide]",> 5.00
16,"CC(C)Oc1ccc(-c2cnc3[nH]c4cnc(C#N)cc4c3c2)cc1 [Example 135, 3-(4-Isopropoxy-phenyl)-9H-dipyrido[2,3-b;4′,3′-d]pyrrole-6-carbonitrile]",> 5.00
17,"CC(=O)Nc1cccc(-c2cnc3[nH]c4cnc(C#N)cc4c3c2)c1 [Example 138, N-[3-(6-Cyano-9H-dipyrido[2,3-b;4′,3′-d]pyrrol-3-yl)-phenyl]-acetamide]",> 5.00
